Holding throughout (test): cells
The subject of assay [1] is endothelial tube formation in co-cultures of ECFCs and ADSCs treated with VEGF. The format is cell-based, human.
The test system of assay [2] is nuclear β-catenin in C2C12 cells. It is filed as cell-based.
For assay [3], the system named is INS-1E cells. The format is cell-based, rat.
For assay [4], the system named is NCI-H716 cells. It is filed as cell-based, Human.
For assay [5], the system named is HeLa cells. It is filed as cell-based. The note with it: read-out: CellCycle G2/M.
Assay [6] deals with DLD-1. The format is cell-based.
In assay [7] the test system is SW480. The format is cell-based.
For assay [8], the system named is HCT116. The format is cell-based.
Assay [9] relates to HCT116 cells treated with a GSK3β inhibitor. The format is cell-based.
Assay [10] concerns Colo320. The format is cell-based.
Assay [11] relates to HT-29. The format is cell-based.
The subject of assay [12] is RKO. The format is cell-based.
Assay [13] relates to SNU-C1. The format is cell-based.
Setting [14] is: read-out: Basal_Viability ATP DLD-1.
[15] abbreviates: read-out: Basal_Viability ATP SW480.
Where [16] appears, read: read-out: Basal_Viability ATP HCT116.
Setting [17] is: read-out: GSK3b inh pretreated_Viability ATP HCT116.
Where [18] appears, read: read-out: Basal_Viability ATP Colo 320.
[19] abbreviates: read-out: Basal_Viability ATP HT-29.
The mark [20] stands for this setting: read-out: Basal_Viability ATP RKO.
Setting [21] is: read-out: Basal_Viability ATP SNU-C1.
Where [22] appears, read: Homo sapiens; read-out: Anti-Angiogenesis.
Where [23] appears, read: Mus musculus, C2C12, S2 Table; module primary assay; 20 / 20.1 codes per legend; read-out: Wnt Pathway.
The mark [24] stands for this setting: Rattus norvegicus, INS-1E; read-out: Insulin Secretion.
[25] abbreviates: Homo sapiens, NCI-H716; read-out: GLP 1 Secretion.
The mark [26] stands for this setting: Homo sapiens, HeLa, S2 Table, HeLa, 20 = no response at highest concentration.
The mark [27] stands for this setting: Homo sapiens, DLD-1, basal, DLD-1, read-out: Basal_Viability ATP DLD-1.
The mark [28] stands for this setting: Homo sapiens, SW480, basal, SW480, read-out: Basal_Viability ATP SW480.
Setting [29] is: Homo sapiens, HCT-116, basal, HCT116, read-out: Basal_Viability ATP HCT116.
Setting [30] is: Homo sapiens, HCT-116, HCT116 pretreated with GSK3b inhibitor, read-out: GSK3b inh pretreated_Viability ATP HCT116.
Where [31] appears, read: Homo sapiens; basal; Colo 320; read-out: Basal_Viability ATP Colo 320.
The mark [32] stands for this setting: Homo sapiens, basal, HT-29, read-out: Basal_Viability ATP HT-29.
Setting [33] is: Homo sapiens; basal; RKO; read-out: Basal_Viability ATP RKO.
[34] abbreviates: Homo sapiens, SNU-C1, basal, SNU-C1, read-out: Basal_Viability ATP SNU-C1.
Setting [35] is: Homo sapiens, HT-29, read-out: Basal_Viability ATP HT-29.
The mark [36] stands for this setting: Homo sapiens, HCT-116, read-out: GSK3b inh pretreated_Viability ATP HCT116.
Where [37] appears, read: IC50 / EC50; endothelial tube area, ADSC/ECFC co-culture; read-out: Anti-Angiogenesis.
Setting [38] is: IC50 / EC50; C2C12 beta-catenin translocation; read-out: Wnt Pathway.
Setting [39] is: IC50 / EC50; INS-1E; read-out: Insulin Secretion.
[40] abbreviates: IC50 / EC50; NCI-H716; read-out: GLP 1 Secretion.
Setting [41] is: basal, read-out: Basal_Viability ATP DLD-1.
[42] abbreviates: basal, read-out: Basal_Viability ATP SW480.
Where [43] appears, read: basal, read-out: Basal_Viability ATP HCT116.
Setting [44] is: GSK3b inhibitor pretreated, read-out: GSK3b inh pretreated_Viability ATP HCT116.
The mark [45] stands for this setting: basal; read-out: Basal_Viability ATP Colo 320.
Setting [46] is: basal, read-out: Basal_Viability ATP HT-29.
Where [47] appears, read: basal; read-out: Basal_Viability ATP RKO.
Where [48] appears, read: basal, read-out: Basal_Viability ATP SNU-C1.

Read-outs that look alike come from different tables or passages of the source. A value given as a limit tells only on which side of the number the result lay.

The values below come from paper PMC4503722, “Novel Phenotypic Outcomes Identified for a Public Collection of Approved Drugs from a Publicly Accessible Panel of Assays” (PLoS ONE, 2015).

In the case of `CCN1C(=CC=Cc2sc3ccccc3[n+]2CC)Sc2ccccc21` [3,3'-diethylthiacarbocyanine iodide], the IC50 in assay [1] (read-out: Anti-Angiogenesis) is above 10 µM; in assay [6] (setting [14]), 0.0148 µM; in assay [7] (setting [15]) it was 0.172 µM; in assay [8] (setting [16]) it was 0.00957 µM; in assay [9] (setting [17]), 0.00875 µM; in assay [10] (setting [18]), 0.562 µM. For the same compound, the IC50 in assay [11] (setting [19]) came to 0.00838 µM; in assay [12] (setting [20]), 0.00898 µM; in assay [13] (setting [21]), 0.0172 µM. For the same compound, the EC50 in assay [2] (read-out: Wnt Pathway), in assay [3] (read-out: Insulin Secretion), in assay [4] (read-out: GLP 1 Secretion) and in assay [5] was above 10 µM throughout.

Turning to `CCc1oc2ccccc2c1C(=O)c1cc(Br)c(O)c(Br)c1` [Benzbromarone], the IC50 is above 10 µM in assay [1] (setting [22]); 0.268 µM in [6] (setting [27]); 1.74 µM in [7] (setting [28]); 1.06 µM in [8] (setting [29]); 0.0667 µM in assay [9] (setting [30]); above 20 µM in assay [10] (setting [31]). In addition, the IC50 in [11] (setting [32]) is 1.14 µM; in [12] (setting [33]), 0.131 µM; in assay [13] (setting [34]) it was 0.105 µM. Moreover, the EC50 in [2] (setting [23]) was above 10 µM; in assay [3] (setting [24]), above 10 µM; in assay [4] (setting [25]) it was above 20 µM; in assay [5] (setting [26]) it was above 10 µM.

Turning to `CN(C)CCOC(c1ccccc1)c1ccc(Br)cc1` (stereo not drawn) [Bromazine], the IC50 in assay [1] (Homo sapiens, IC50 / EC50; endothelial tube area, ADSC/ECFC co-culture; read-out: Anti-Angiogenesis) is above 10 µM; in assay [6] (Homo sapiens, DLD-1, basal, read-out: Basal_Viability ATP DLD-1), above 20 µM; in [7] (Homo sapiens, SW480, basal, read-out: Basal_Viability ATP SW480), above 20 µM; in assay [8] (Homo sapiens, HCT-116, basal, read-out: Basal_Viability ATP HCT116), above 20 µM; in assay [9] (Homo sapiens, HCT-116, GSK3b inhibitor pretreated, read-out: GSK3b inh pretreated_Viability ATP HCT116), above 20 µM; in [10] (Homo sapiens, COLO 320; read-out: Basal_Viability ATP Colo 320), above 20 µM. The IC50 in assay [11] (setting [35]) is 17 µM; in assay [12] (Homo sapiens, RKO; read-out: Basal_Viability ATP RKO) it was above 20 µM; in assay [13] (Homo sapiens, SNU-C1, basal, read-out: Basal_Viability ATP SNU-C1), 3.1 µM. The EC50 in assay [2] (Mus musculus, C2C12, IC50 / EC50; C2C12 beta-catenin translocation; read-out: Wnt Pathway) was above 10 µM; in [3] (Rattus norvegicus; IC50 / EC50; INS-1E; read-out: Insulin Secretion) it was 2.77 µM; in assay [4] (Homo sapiens; IC50 / EC50; NCI-H716; read-out: GLP 1 Secretion), above 10 µM; in assay [5] (Homo sapiens, HeLa, IC50 / EC50, HeLa), above 10 µM.

Regarding `CCCCOC(=O)c1ccc(N)cc1` [Butyl aminobenzoate], the IC50 in [1] (Homo sapiens, S2 Table; module primary assay; 20 = no response at highest concentration, 20.1 = inactive in single concentration testing; read-out: Anti-Angiogenesis) was above 10 µM; in assay [6] (setting [27]) it was 4.56 µM; in assay [7] (setting [28]), 0.586 µM; in [8] (setting [29]), above 20 µM; in assay [9] (setting [36]), 5.61 µM; in assay [10] (setting [31]), above 20 µM. In addition, the figures for the IC50 in assay [11] (setting [32]), in [12] (setting [33]) and in [13] (setting [34]) were above 20 µM, 0.137 µM and above 20 µM, respectively. Further, the EC50 in assay [2] (setting [23]), in assay [3] (setting [24]), in assay [4] (setting [25]) and in assay [5] (setting [26]) was above 10 µM each time.

Take `O=[N+]([O-])c1ccc(Oc2ccc(N=C=S)cc2)cc1` [Cantrodifene]: the IC50 in assay [1] (setting [37]) amounted to 3.72 µM; in assay [6] (setting [41]) it was 2.1 µM; in [7] (setting [42]), 1.63 µM; in [8] (setting [43]) it was 2.77 µM; in [9] (setting [44]), 1.47 µM; in [10] (setting [45]) it was 1.46 µM. In addition, the IC50 in assay [11] (setting [46]) turned out to be 1.07 µM; in assay [12] (setting [47]), 2.34 µM; in assay [13] (setting [48]), 4.33 µM. Besides, the EC50 was above 10 µM in assay [2] (setting [38]); above 10 µM in assay [3] (setting [39]); above 10 µM in assay [4] (setting [40]); above 10 µM in assay [5] (IC50 / EC50, HeLa).

Consider `O=C([O-])CN(CCN(CC(=O)[O-])CC(=O)O)CCN(CC(=O)[O-])CC(=O)O.[Gd+3]` [Gadopentetic acid], for which the IC50 in assay [1] (read-out: Anti-Angiogenesis) is above 10 µM; in assay [6] (setting [14]) it was above 20 µM; in assay [7] (setting [15]) it was 3.14 µM; in assay [8] (setting [16]) it was above 20 µM; in assay [9] (setting [17]), 0.896 µM; in [10] (setting [18]) it was above 20 µM. The IC50 in assay [11] (setting [19]) is above 20 µM; in assay [12] (setting [20]) it was 2.96 µM; in assay [13] (setting [21]), above 20 µM. For the same compound, the EC50 in assay [2] (read-out: Wnt Pathway), in assay [3] (read-out: Insulin Secretion), in assay [4] (read-out: GLP 1 Secretion) and in [5] was above 10 µM each time.

For the compound `O=C(c1cc(O)c(O)c(O)c1)c1ccc(O)c(O)c1O` [Hexahydro-2,3,4,3',4',5'-benzophenone], the IC50 in assay [1] (setting [37]) is above 10 µM; in [6] (setting [41]) it was 11.9 µM; in [7] (setting [42]), 9.95 µM; in [8] (setting [43]), 16.3 µM; in [9] (setting [44]) it was 0.0691 µM; in [10] (setting [45]), 9.38 µM. For the same compound, the IC50 was 9.45 µM in [11] (setting [46]), 0.192 µM in assay [12] (setting [47]) and 12.8 µM in [13] (setting [48]). Moreover, the EC50 in [2] (setting [38]) was above 10 µM; in assay [3] (setting [39]), above 10 µM; in assay [4] (setting [40]) it was above 10 µM; in [5] (IC50 / EC50, HeLa), above 10 µM.

Consider `O=C1C(I)=CC(=C(c2cc(I)c(O)c(I)c2)c2ccccc2C(=O)O)C=C1I` [Iodotetragnost], for which the IC50 in assay [1] (setting [22]) was above 10 µM; in assay [6] (setting [27]), 0.0132 µM; in [7] (setting [28]) it was 0.112 µM; in [8] (setting [29]), 0.384 µM; in [9] (setting [30]) it was 0.054 µM; in assay [10] (setting [31]), 0.312 µM. Further, the IC50 in [11] (setting [35]) is 5.73 µM; in assay [12] (setting [33]), 0.0373 µM; in assay [13] (setting [34]), 3.76 µM. Also, the EC50 in assay [2] (Mus musculus, C2C12; read-out: Wnt Pathway) was above 20 µM; in [3] (setting [24]) it was above 10 µM; in assay [4] (setting [25]), above 10 µM; in [5] (setting [26]), above 10 µM.

Consider `CO[C@@]12[C@H](COC(N)=O)C3=C(C(=O)C(C)=C(N)C3=O)N1C[C@@H]1N[C@@H]12` [Mitomycin], for which the IC50 was 0.102 µM in assay [1] (Homo sapiens, read-out: Anti-Angiogenesis); 5.63 µM in assay [6] (Homo sapiens, DLD-1, read-out: Basal_Viability ATP DLD-1); 12.1 µM in [7] (Homo sapiens, SW480, read-out: Basal_Viability ATP SW480); 13.6 µM in [8] (Homo sapiens, HCT-116, read-out: Basal_Viability ATP HCT116); above 20 µM in assay [9] (setting [36]); 12.6 µM in assay [10] (Homo sapiens, COLO 320, read-out: Basal_Viability ATP Colo 320). Further, the IC50 in [11] (setting [35]) turned out to be 2.57 µM; in assay [12] (Homo sapiens, RKO, read-out: Basal_Viability ATP RKO), 0.995 µM; in assay [13] (Homo sapiens, SNU-C1, read-out: Basal_Viability ATP SNU-C1), 8.13 µM. Also, the EC50 in [2] (Mus musculus, C2C12, read-out: Wnt Pathway) is above 10 µM; in assay [3] (Rattus norvegicus, INS-1E, read-out: Insulin Secretion) it was above 10 µM; in assay [4] (Homo sapiens, NCI-H716, read-out: GLP 1 Secretion) it was above 10 µM; in assay [5] (Homo sapiens, HeLa), above 10 µM.
